Consider 17 molecules from BindingDB's records for doi:10.1021/acsmedchemlett.8b00549 (Stellenbosch University, 2019).

Each structure is given as a SMILES string.

The nature of test [1]: Inhibition of HIV1 reverse transcriptase Y181C mutant in HIV1 infected HEK293T cells harboring luciferase gene assessed as reduction in viral infection after 48 hrs by Bright-Glo luciferase assay.
Test [2] in a line: Inhibition of HIV1 reverse transcriptase G190A mutant in HIV1 infected HEK293T cells harboring luciferase gene assessed as reduction in viral infection after 48 hrs by Bright-Glo luciferase assay.
Test [3] can be described thus: Inhibition of HIV1 reverse transcriptase V106M mutant in HIV1 infected HEK293T cells harboring luciferase gene assessed as reduction in viral infection after 48 hrs by Bright-Glo luciferase assay.
Test [4] is described as follows: Inhibition of HIV1 reverse transcriptase K103N mutant in HIV1 infected HEK293T cells harboring luciferase gene assessed as reduction in viral infection after 48 hrs by Bright-Glo luciferase assay.
Test [5] in a line: Inhibition of HIV1 reverse transcriptase Y188C mutant in HIV1 infected HEK293T cells harboring luciferase gene assessed as reduction in viral infection after 48 hrs by Bright-Glo luciferase assay.
Test [6] in a line: Inhibition of wild-type HIV1 reverse transcriptase in HIV1 infected HEK293T cells harboring luciferase gene assessed as reduction in viral infection after 48 hrs by Bright-Glo luciferase assay.
Test [7] in a line: Inhibition of HIV1 reverse transcriptase Y188H mutant in HIV1 infected HEK293T cells harboring luciferase gene assessed as reduction in viral infection after 48 hrs by Bright-Glo luciferase assay.
The nature of test [8]: Inhibition of HIV1 reverse transcriptase K103N/Y181C double mutant in HIV1 infected HEK293T cells harboring luciferase gene assessed as reduction in viral infection after 48 hrs by Bright-Glo luciferase assay.

As to `Cn1c(=O)[nH]c2cccc(Oc3cc(Cl)cc(C#N)c3)c21`, the IC50 in test [1] is 55 nM; in test [2] it was 107 nM; in test [3], 494 nM; in test [4], 126 nM; in test [5], 236 nM; in test [6], 29 nM. Also, the IC50 in test [7] amounted to 74 nM.

Consider `CCn1c(=O)[nH]c2cccc(Oc3cc(C#N)cc(/C=C/C#N)c3)c21`, for which the half-inhibitory concentration (IC50) is 73 nM in test [1]; 377 nM in test [2]; 926 nM in test [3]; 166 nM in test [4]; 14 nM in test [5]; 49 nM in test [6]. Besides, the IC50 came to 51 nM in test [8] and 468 nM in test [7].

For `CC1(C)OC(=O)Nc2cccc(Oc3cc(Cl)cc(C#N)c3)c21`, the IC50 was found to be 28 nM in test [1]; 2760 nM in test [2]; 630 nM in test [3]; 798 nM in test [4]; 7 nM in test [5]; 21 nM in test [6]. Also, the IC50 in test [8] came to 894 nM; in test [7], 1150 nM.

In the case of `CCn1c(=O)[nH]c2cccc(Oc3cc(Cl)cc(C#N)c3)c21`, the IC50 in test [1] was determined as 18 nM; in test [2] it was 126 nM; in test [3], 293 nM; in test [4] it was 111 nM; in test [5], 7 nM; in test [6] it was 26 nM. The IC50 in test [8] came out at 52 nM; in test [7] it was 415 nM.

For `CCn1c(=O)[nH]c2cccc(Oc3ccccc3)c21`, the IC50 in test [6] stood at 3880 nM.

Regarding `CCC(c1ccccc1)n1c(=O)[nH]c2ccc(Cl)cc21` (stereo unspecified), the half-maximal inhibitory concentration (IC50) is greater than 200 nM in test [1], greater than 200 nM in test [4] and 36 nM in test [6].

For `CCOC(=O)c1[nH]c2ccc(Cl)cc2c1C(SC)c1ccccc1` (stereo unspecified), the half-inhibitory concentration (IC50) in test [6] worked out at 39 nM.

In the case of `CCOC(=O)c1[nH]c2ccc(Cl)cc2c1C(OC)c1ccccc1` (stereo unspecified), the IC50 in test [6] came to 16 nM.

Turning to `CCCn1c(=O)[nH]c2cccc(Oc3cc(Cl)cc(C#N)c3)c21`, in test [6], the IC50 was found to be 50 nM.

Regarding `CCn1c(=O)[nH]c2cccc(Oc3ccnc(Cl)c3)c21`, in test [6], the IC50 was greater than 44100 nM.

Turning to `CCn1c(=O)[nH]c2cccc(Oc3cc(C#N)ccn3)c21`, the IC50 in test [6] was found to be 1360 nM.

For the molecule `CCOC(=O)c1[nH]c2ccc(Cl)cc2c1C(OC)c1cc(C)cc(C)c1` (stereo unspecified), the IC50 in test [6] amounted to 34 nM.

For `CCn1c(=O)[nH]c2cccc(Oc3cccc4ccccc34)c21`, the 50% inhibitory concentration (IC50) in test [6] was 2270 nM.

Regarding `CCOC(=O)c1[nH]c2ccc(Cl)cc2c1C(SC)c1cc(C)cc(C)c1` (stereo unspecified), the 50% inhibitory concentration (IC50) in test [6] is 60 nM.

For the molecule `CCn1c(=O)[nH]c2cccc(Oc3ccnc(C#N)c3)c21`, in test [6], the IC50 is 13300 nM.

Regarding `CCn1c(=O)[nH]c2cccc(Oc3cc(C)cc(C)c3)c21`, the IC50 in test [6] is 303 nM.

As for `CCn1c(=O)[nH]c2cccc(Oc3cc(C#N)cc(C#N)c3)c21`, the half-maximal inhibitory concentration (IC50) in test [6] amounted to 63 nM.
